Experimental data taken from patent US6828315B1, “1-Amino triazoloc4,3-a! quinazoline-5-ones and/or -5-thiones inhibiting phosphodiesterase IV” (Warner-Lambert LLC, priority 1999, dated 2004).

How the values were obtained:
[1] = biological target: type 4 phosphodiesterases (PDE4); test: Inhibition of the phosphodiesterase (PDE4), enzymatic preparation from line U937; type: biochemical; conditions: PDE4 from cytosolic preparation of human cell line U937
Protocol: The capacity of the formula (I) compounds of the invention to inhibit the cyclic nucleotide phosphodiesterases is evaluated by their Cl50 measurement (necessary concentration to inhibit 50% of enzymatic activity).
The type 4 phosphodiesterases are obtained from a cytosolic preparation extracted from the human origin cellular line U937 according to a method adapted from T. J. Torphy and al., 1992, J.Pharm.Exp. Ther. 263: 1195-1205
The other classes of phosphodiesterases are obtained after partial purification FPLC on Mono Q column. (anion exchange column) according to a method adapted from Lavan B. E., Lakey T., Houslay M. D. Biochemical Pharmacology, 1989, 38(22), 4123-4136., and from Silver P. J and al., 1988, Eur.J. Pharmacol. 150: 85-94, either, from human origin cellular lines for PDE 1 (monocytar line TPH1) and PDE5 (line MCF7 issued from an adenocarcinoma), or from dog aorta for PDE 3, or for the human PDE3A, from gene cloning in insect cells SF21 in baculovirus, according to a method adapted from Luckow, V. A. and al., 1991 in Recombinant DNA Technology&Applications.,eds. Prokop, Bajpai,R. K.&Ho,C. S., pp97-152. The enzymatic activity measurement of the different PDE classes, and in particular the PDE 4, is performed according to a method adapted from W. J. Thompson and al. 1979, Advances in Cyclic Nucleotide Research, Vol. 10: 69-92, ed. G. Brooker and al. Raven Press, NY.
For the Cl50 determination, the enzymatic activity is measured in the presence of inhibitor within concentration margins of 0.1 to 100 μM.
The following table illustrates the PDE4 inhibitory activity from enzymatic preparation obtained from the line U937.

Structure (SMILES) | IC50 [1] | melting point
CN(C)C(=O)Cc1ccc(Cn2c(=O)c3cc(Br)ccc3n3c(N4CCCC4)nnc23)cc1 [Compound 242, 2-[4-(7-Bromo-5-oxo-1-pyrrolidin-1-yl-5H-[1,2,4]triazolo[4,3-a]quinazolin-4-ylmethyl)-phenyl]-N,N-dimethyl-acetamide] | 11 nM | 202 °C
O=c1c2cc(I)ccc2n2c(N3CCCC3)nnc2n1Cc1ccccc1 [Compound 189, 4-Benzyl-7-iodo-1-pyrrolidin-1-yl-4H-[1,2,4]triazolo[4,3-a]quinazolin-5-one] | 78 nM | 184 °C
CN(C)c1nnc2n(Cc3ccc(O)cc3)c(=O)c3cc(Br)ccc3n12 [Compound 80, 7-Bromo-1-dimethylamino-4-(4-hydroxy-benzyl)-4H-[1,2,4]triazolo[4,3-a]quinazolin-5-one] | 73 nM | 284 °C
COC(=O)c1ccc(Cn2c(=O)c3cc(Br)ccc3n3c(N4CCCC4)nnc23)cc1 [Compound 47, 4-(7-Bromo-5-oxo-1-pyrrolidin-1-yl-5H-[1,2,4]triazolo[4,3-a]quinazolin-4-ylmethyl)-benzoic acid methyl ester] | 50 nM | 205 °C
O=c1c2cc(Br)ccc2n2c(N3CCCC3)nnc2n1C/C=C/c1ccncc1 [Compound 62, 7-Bromo-4-((E)-3-pyridin-4-yl-allyl)-1-pyrrolidin-1-yl-4H-[1,2,4]triazolo[4,3-a]quinazolin-5-one] | 53 nM | 167 °C
Cc1ccc(Cn2c(=O)c3cc(Br)ccc3n3c(N4CCCC4)nnc23)cc1 [Compound 42, 7-Bromo-4-(4-methyl-benzyl)-1-pyrrolidin-1-yl-4H-[1,2,4]triazolo[4,3-a]quinazolin-5-one] | 24 nM | 215 °C
Nc1ccc(Cn2c(=O)c3cc(Br)ccc3n3c(N4CCCC4)nnc23)cc1 [Compound 218, 4-(4-Amino-benzyl)-7-bromo-1-pyrrolidin-1-yl-4H-[1,2,4]triazolo[4,3-a]quinazolin-5-one] | 48 nM | 
Cc1ccc2c(c1)c(=O)n(Cc1ccccc1)c1nnc(N3CCCCCC3)n21 [Compound 190, 1-Azepan-1-yl-4-benzyl-7-methyl-4H-[1,2,4]triazolo[4,3-a]quinazolin-5-one] | 190 nM | 183 °C
O=c1c2cc(Cl)ccc2n2c(N3CCCCCC3)nnc2n1Cc1ccc(F)cc1 [Compound 13, 1-(azepan-1-yl)-7-chloro-4-(4-fluorobenzyl)-4H-[1,2,4]triazolo[4,3-a]quinazolin-5-one] | 60 nM | 150 °C
COc1ccc(Cn2c(=O)c3cc(Cl)ccc3n3c(N4CCCCCC4)nnc23)cc1OC [Compound 20, 1-(azepan-1-yl)-7-chloro-4-(3,4-dimethoxybenzyl)-4H-[1,2,4]triazolo[4,3-a]quinazolin-5-one] | 40 nM | 172 °C
Cc1ccc2c(c1)c(=O)n(Cc1ccc(CC(=O)O)cc1)c1nnc(N(C)C)n21 [Compound 102, [4-(1-Dimethylamino-7-methyl-5-oxo-5H-[1,2,4]triazolo[4,3-a]quinazolin-4-ylmethyl)-phenyl]-acetic acid] | 60 nM | 
O=c1c2cc(Br)ccc2n2c(N3CCCCC3)nnc2n1CC=Cc1ccccc1 [Compound 76, 1-(piperidin-1-yl)-7-bromo-4-(3-phenylallyl)-4H-[1,2,4]triazolo[4,3-a]quinazolin-5-one] | 70 nM | 
O=c1c2cc(Br)ccc2n2c(N3CCCC3)nnc2n1Cc1ccccc1 [Compound 164, 4-benzyl-7-bromo-1-(pyrrolidin-1-yl)-4H-[1,2,4]triazolo[4,3-a]-quinazolin-5-one] | 90 nM | 
N#Cc1cccc(Cn2c(=O)c3cc(Br)ccc3n3c(N4CCCC4)nnc23)c1 [Compound 45, 3-(7-Bromo-5-oxo-1-pyrrolidin-1-yl-5H-[1,2,4]triazolo[4,3-a]quinazolin-4-ylmethyl)benzonitrile] |  | 206 °C
O=c1nc2n(Cc3ccc(Cl)cc3)nc(N3CCCCCC3)n2c2ccc(Br)cc12 [Compound 134, 1-(azepan-1-yl)-7-bromo-3-(4-chlorobenzyl)-3H-[1,2,4]triazolo[4,3-a]quinazolin-5-one] |  | 247 °C
N#Cc1ccc(Cn2c(=O)c3cc(Br)ccc3n3c(N4CCCCC4)nnc23)cc1 [Compound 74, 4-(7-Bromo-5-oxo-1-piperidin-1-yl-5H-[1,2,4]triazolo[4,3-a]quinazolin-4-ylmethyl)-benzonitrile] |  | 200 °C
O=C(Cn1c(=O)c2cc(Cl)ccc2n2c(N3CCCCCC3)nnc12)c1ccccc1 [Compound 27, 1-Azepan-1-yl-7-chloro-4-(2-oxo-2-phenyl-ethyl)-4H-[1,2,4]triazolo[4,3-a]quinazolin-5-one] |  | 105 to 107 °C
O=c1nc2n(Cc3ccc(Cl)c(Cl)c3)nc(N3CCCCCC3)n2c2ccc(Cl)cc12 [Compound 123, 1-(azepan-1-yl)-7-chloro-3-(3,4-dichlorobenzyl)-3H-[1,2,4]triazolo[4,3-a]quinazolin-5-one] |  | 212 °C
O=c1nc2n(Cc3cccnc3)nc(N3CCCCCC3)n2c2ccc(Cl)cc12 [Compound 126, 1-(azepan-1-yl)-7-chloro-3-(3-pyridylmethyl)-3H-[1,2,4]triazolo[4,3-a]quinazolin-5-one] |  | 184 °C

Further lines, results first:

IC50 [1] | melting point | Structure (SMILES)
2690 nM |  | CC(C)Nc1ccc2c(c1)c(=O)n(Cc1ccccc1)c1nnc(N3CCCC3)n21 [Compound 234, 4-Benzyl-7-isopropylamino-1-pyrrolidin-1-yl-4H-[1,2,4]triazolo[4,3-a]quinazolin-5-one]
54 nM |  | O=c1c2cc(Cl)ccc2n2c(N3CCCCCC3)nnc2n1CC=Cc1ccccc1 [Compound 1, 1-(Azepan-1-yl)-7-chloro-4-(3-phenylallyl)-4H-[1,2,4]triazolo[4,3-a]quinazolin-5-one]
30 nM | 105 °C | O=c1c2cc(Br)ccc2n2c(N3CCCC3)nnc2n1Cc1ccc(Cl)cc1 [Compound 43, 7-Bromo-4-(4-chloro-benzyl)-1-pyrrolidin-1-yl-4H-[1,2,4]triazolo[4,3-a]quinazolin-5-one]
0.27 nM | 270 °C | CNc1ccc2c(c1)c(=O)n(Cc1ccc(C#N)cc1)c1nnc(N3CCCC3)n21 [Compound 231, 4-(7-Methylamino-5-oxo-1-pyrrolidin-1-yl-5H-[1,2,4]triazolo[4,3-a]quinazolin-4-ylmethyl)-benzonitrile]
90 nM | 83 °C | COC(=O)C(c1ccccc1)n1nc(N(C)C)n2c3ccc(Br)cc3c(=O)nc12 (centres unmarked) [Compound 156, (7-Bromo-1-dimethylamino-5-oxo-5H-[1,2,4]triazolo[4,3-a]quinazolin-3-yl)-phenyl-acetic acid methyl ester]
41 nM | 133 °C | Cc1ccc2c(c1)c(=S)n(CC=Cc1cccnc1)c1nnc(N(C)C)n21 [Compound 246, 1-Dimethylamino-7-methyl-4-(3-pyridin-3-yl-allyl)-4H-[1,2,4]triazolo[4,3-a]quinazoline-5-thione]
16 nM | 197 °C | COC(=O)c1ccc(Cn2c(=O)c3cc(Br)ccc3n3c(N(C)C)nnc23)cc1 [Compound 81, 4-(7-Bromo-1-dimethylamino-5-oxo-5H-[1,2,4]triazolo[4,3-a]quinazolin-4-ylmethyl)-benzoic acid methyl ester]
410 nM | 155 °C | O=c1c2cc(Cl)ccc2n2c(N3CCCCCC3)nnc2n1Cc1cccnc1 [Compound 22, 1-(azepan-1-yl)-7-chloro-4-(3-pyridylmethyl)-4H-[1,2,4]triazolo[4,3-a]quinazolin-5-one]
13 nM |  | CNC(=O)Cc1ccc(Cn2c(=O)c3cc(Br)ccc3n3c(N4CCCC4)nnc23)cc1 [Compound 240, 2-[4-(7-Bromo-5-oxo-1-pyrrolidin-1-yl-5H-[1,2,4]triazolo[4,3-a]quinazolin-4-ylmethyl)-phenyl]-N-methyl-acetamide]
5 nM |  | COC(=O)Cc1ccc(Cn2c(=O)c3cc(Br)ccc3n3c(N4CCCC4)nnc23)cc1 [Compound 239, [4-(7-Bromo-5-oxo-1-pyrrolidin-1-yl-5H-[1,2,4]triazolo[4,3-a]quinazolin-4-ylmethyl)-phenyl]-acetic acid methyl ester]
12 nM |  | Nc1ccc2c(c1)c(=O)n(C/C=C/c1ccccc1)c1nnc(N3CCCC3)n21 [Compound 223, 7-Amino-4-((E)-3-phenyl-allyl)-1-pyrrolidin-1-yl-4H-[1,2,4]triazolo[4,3-a]quinazolin-5-one]
 | 163 °C | COc1cccc(Cn2nc(N3CCCCCC3)n3c4ccc(Cl)cc4c(=O)nc23)c1 [Compound 121, 1-(azepan-1-yl)-7-chloro-3-(3-methoxybenzyl)-3H-[1,2,4]triazolo[4,3-a]quinazolin-5-one]
 | 202 °C | Cc1ccc2c(=O)n(Cc3ccccc3)c3nnc(N4CCCCCC4)n3c2c1 [Compound 194, 1-Azepan-1-yl-4-benzyl-8-methyl-4H-[1,2,4]triazolo[4,3-a]quinazolin-5-one]
